# Reference: patent US4057686A, “Sulphonic acid salts of S-adenosilmethionine” (Bioresearch Limited, priority 1974, dated 1977)
# Where two headings read alike, the source gives them in different places.
# What was measured:
# [1] = test system: Parkinsons disease and Parkinsonisms; assay: Clinical tests: Parkinsons disease and Parkinsonisms, with Levodopa; format: in vivo, human
# osteoarthritic forms = assay: Clinical tests: osteoarthritis; format: in vivo, human
# mouse = assay: Acute toxicity (DL50) in the mouse; format: in vivo
# Source text: In particular, the DL50 in the mouse in greater than 2.5 g/kg/os and 1.00 g/kg/i.p.
# rats = details: rat, in vivo
# hepatic steatosis = assay: Hepatic steatosis models in rats (Handler diet, acute alcoholic intoxication, toxic agents); format: in vivo, rat
# Source text: (§1) This was confirmed by subsequent pharmacological tests.
# [2] = test system: young volunteer healthy subjects of both sexes; assay: Tolerability in young volunteer healthy subjects; format: in vivo; details: man, 5-150 mg
# [3] = test system: subjects with hypoprotidemias, disprotidemias, chronic hepatopathias, precyrrotic and cyrrotic states, malabsorption and protide dispersing syndromes; assay: Clinical tests: hypoprotidemias, chronic hepatopathias, cyrrotic states, malabsorption; format: in vivo, human; details: 20 to 80 mg per day, intermuscular, intravenous or oral
# Experimental: 2. Hundreds of subjects were treated clinically affected with: secondary hypoprotidemias and disprotidemias; persistent and aggressive chronic hepatopathias; precyrrotic and cyrrotic states; malabsorption syndromes, and protide dispersing syndromes.
# cat = details: in vivo, 16 mg/kg
# hot plate test = assay: Hot plate analgesia test; format: in vivo; details: in comparison with known drugs studied
# Source text: (§2) Of the various tests we shall mention the most classic, namely the edema by carragenine and by egg white as a test for acute inflammation; and granuloma by cotton pellets and arthritis by adjuvant as a test for chronic inflammation. […] The analgesia tests were in the form of the hot plate test and stretching by acetic acid, and the Randal and Selitto test in the rat.
# [4] = test system: granuloma by cotton pellets; assay: Granuloma by cotton pellets (chronic inflammation); format: in vivo; details: orally 8 to 40 mg/kg; parenterally 4 to 8 mg/kg; in comparison with Ibuprofen, Indometacina
# Source text: as §2
# Randal and Selitto test = assay: Randal and Selitto analgesia test in the rat; format: in vivo; details: in comparison with known drugs studied
# Source text: as §2
# [5] = test system: stretching by acetic acid; assay: Stretching by acetic acid analgesia test; format: in vivo; details: in comparison with known drugs studied
# Source text: as §2
# edema by carragenine = assay: Edema by carragenine (acute inflammation); format: in vivo; details: orally 8 to 40 mg/kg; parenterally 4 to 8 mg/kg; in comparison with Ibuprofen, Indometacina
# Source text: as §2
# rabbits = details: rabbit, in vivo
# rabbit [6] = assay: Local tolerability of injections; format: in vivo
# arthritis by adjuvant = assay: Arthritis by adjuvant (chronic inflammation); format: in vivo; details: orally 8 to 40 mg/kg; parenterally 4 to 8 mg/kg; in comparison with Ibuprofen, Indometacina
# Source text: as §2
# [7] = test system: neuritis, polyneuritis, anthralgia, sciatica, radiocolitis, torticollis; cephalalgia
# Experimental: The antalgic activity of SAM was also tested in different subjects with different neurological frameworks: neuritis, polyneuritis, anthralgia, sciatica, radiocolitis, torticollis.
# [8] = test system: sleeping time induced by hexobarbital; assay: Hexobarbital sleeping time in mice (Holten and Larsen); format: in vivo
# Experimental: A further aspect considered by us was the possible action of SAM on the sleeping time by barbiturates.
# For this purpose an experiment was carried out in which groups of mice received hexobarbital in a dose of 80 mg/kg/i.p. in accordance with the method of Holten and Larsen (Acta Pharmacol. Toxicol. 1956, 12, 346); one group was the control group and the second received SAM in a dose of 4 mg/kg/i.p. (table).
# depressive forms = assay: Clinical tests: depressive forms (tests of Hamilton and Wittenberg); format: in vivo, human; details: 8 to 20 mg 3-4 times per day, 5-15 days, no other therapy
# hepatic phospholipids = assay: Hepatic phospholipids in rats after intoxication with CCl4; format: in vivo, rat
# Source text: as §1
# Hepatic phospholipids in rats after intoxication with CCl4 and treatment with SAM.
# (§3) The values are the averages ± E.S. of 10 values for each group. In studying the hepatoprotective activity we have used an experimental device which produces in the rat the so-called hepatic cholesterol degeneration (Ridout and Coll., Biochem. J. 52, 99, 1952).
# [9] = mouse, in vivo
# Source text: Parallel with this, an autoradiographic study was made on the mouse.
# [10] = test system: subjects with hyperdislipidemia in the uncompensated stage; assay: Clinical tests: hyperdislipidemia; format: in vivo, human; details: 2-3 times per day
# [11] = test system: hepatic cholesterol degeneration; assay: Hepatic cholesterol degeneration in the rat (Ridout); format: in vivo; details: for Fresh liver weight: three weeks
# Source text: as §3
# In this method, by means of a suitable diet, a conspicuous increase in the total hepatic fats and hepatic cholesterol are obtained in the animals. The substances which act in the lipidic metabolism reduce or annul this increase.
# The animals were divided into six groups. The first group was administered with a diet which was varied at will. The second group was administered with the basic diet of Ridout (20 g per rat per day); the other groups were administered with the same diet in the same doses but enriched with cholesterol to the extent of 0.2 g/rat/day. The treatment lasted three weeks. The groups 4,5,6 were administered with SAM in the following doses:
# 0.4, 0.8, 2 mg/kg/i.p. per day.
# At the end of the three weeks all the animals were killed, the livers were withdrawn and the total fats (Best and Coll., Biochem. J. 40, 368, 1966) and cholesterol (Sperry and Brand, J. Biol. Chem. 150, 315, 1943) were determined.
# [12] = test system: clear arteriosclerosis with clinical manifestations of the psycho-affective sphere; assay: Clinical tests: arteriosclerosis, hypoxydotic states, post-apoplectic syndromes; format: in vivo, human
# edema by egg white = assay: Edema by egg white (acute inflammation); format: in vivo; details: orally 8 to 40 mg/kg; parenterally 4 to 8 mg/kg; in comparison with Ibuprofen, Indometacina
# Source text: as §2
# rabbit [13] = details: in vivo, 16 mg/kg
# [14] = in vivo, 4.2 mg/kg; for Distribution of SAM in rat tissues: Hypophysis / Distribution of SAM in rat tissues: Hypothalamus / Distribution of SAM in rat tissues: Liver / Distribution of SAM in rat tissues: Plasma / Distribution of SAM in rat tissues: Rind / Distribution of SAM in rat tissues: Spleen / Distribution of SAM in rat tissues: Suprarenal glands: iv
# Experimental: In order to indicatively determine how SAM is distributed in the tissues, S-Adenosilmethionine (Methyl C^14) was prepared. The distribution of this product in rats was studied by administering a dose of 4.2 mg/kg/e.v. equal to approxymately 10 μci of radioactive product. The specific activity of the product was 58 mCi/m moles.
# [15] = test system: disturbances of the sleeping-waking rhythm, insomnia; assay: Clinical tests: disturbances of the sleeping-waking rhythm; format: in vivo, human; details: 4-13 mg orally
# [16] = SAM content / stability on storage in the dry state; format: physicochemical; details: 60 days at 45°
# Experimental: The great technical progress achieved by these new salts is their stability with time at 45° in the dry state.
# The SAM content of all acids according to the present invention remains unchanged even after […] at 45° in the dry state.
smiles,measurement,setting,value
"N[C@@H](Cc1ccc(O)c(O)c1)C(=O)O [Levodopa, reference compound]",extent of the Parkinson tremor,[1]; Levodopa alone,cannot be modified
"C[S+](CC[C@H](N)C(=O)O)C[C@H]1O[C@@H](n2cnc3c(N)ncnc32)[C@H](O)[C@@H]1O (stereo partly drawn) [SAM, S-Adenosil-L-Methionine]",activity in osteoarthritic forms,"osteoarthritic forms; 13 mg twice a day intermuscular or intravenous, and 13-20 mg orally 4 times per day",active in all osteoarthritic forms
same,"muscular spasm, limitation of movement, localised pain and rigidity","osteoarthritic forms; after 7 days, with respect to the placebo",influenced in a statistically significant manner
same,therapeutic efficiency vs non-steroid antiphlogistic drug,osteoarthritic forms; double blind study,equal to indomethacin
same,DL50 in the mouse,mouse; i.p.,> 1.00 g/kg
same,DL50 in the mouse,mouse; os,greater than 2.5 g/kg
same,teratogenic actions or malformations,rats,no teratogenic actions were encountered or any malformations
same,accumulation of lipids at the hepatocite level,hepatic steatosis,significantly reduces
same,hemopoietic apparatus and hepatic and renal operation,[2]; intravenous,no variations from normal which were statistically significant
same,electrocardiograph trace,"[2]; intravenous, 30"" to 20', PQ interval, ST section, extrasistol",does not show any variation
same,"minimum and maximum pressure, pulse and respiratory frequency","[2]; rapid intravenous or phleboclysis, 1 minute to 24 hours",does not show any variation from normal values
same,albumin level,[3],an increase in the albumin level
same,percentage ratios between the electrophoretic fractions of the serum,[3],a tendency to normalise
same,subjective symptomology and general objective conditions,[3],often very important improvement
same,tests of hepatic functionality,[3],normalising of all the tests of hepatic functionality
same,total protidemia,[3],a statistically significant increase
same,"carotid pressure, cardiac and respiratory frequency, electrocardiac trace",cat,does not cause any change
same,analgesic activity,hot plate test,active
same,anti-inflammatory activity,[4],active
same,analgesic activity,Randal and Selitto test,active
same,analgesic activity,[5],active
same,anti-inflammatory activity,edema by carragenine,active
same,teratogenic actions or malformations,rabbits,no teratogenic actions were encountered or any malformations
same,local tolerability of the intramuscular injection,"rabbit [6]; intramuscular, even repeated over 180 days",excellent
same,local tolerability of the intravenous injection,"rabbit [6]; intravenous, marginal vein of the auricular pavilion of the rabbit",excellent
same,anti-inflammatory activity,arthritis by adjuvant,active
same,therapeutic (antalgic) effect,"[7]; neurological frameworks, 6 mg twice a day intermuscular or 13-20 mg 3-4 times per day orally",available and efficient from the first day of administration
same,therapeutic effect in recurring and resistant cephalalgia,[7]; orally in masticable tablets,Analogous results were obtained
same,prolonging the sleeping time induced by hexobarbital,[8],active in prolonging the sleeping time
same,remission of main parameters of depressive forms,depressive forms,a significant remissione of the main parameters
same,restoration of normal levels of phospholipids,hepatic phospholipids,favours the restoration of normal levels of phospholipids
same,distribution to tissues,[9],distributed very rapidly to all the tissues
same,dose dependence of hypocholesterolemising and hypolipemising action,[10]; doses of about 8-1.5 mg,proportional to the dose
same,hypertriglyceridemia,[10]; hyperdislipidemia,a marked fall
same,total cholesterolemia,[10]; hyperdislipidemia,a marked fall
same,β/α lipoproteic ratios,[10]; hyperdislipidemia,normalises
same,protection of the batch,[11]; 2 mg/kg/i.p.,completely protected
same,protection of the batch,[11]; 0.4-0.8 mg/kg/i.p.,poorly protected
same,Fresh liver weight,"[11]; batch IV, 0.4 mg/kg/i.p. per day",17 g
same,Fresh liver weight,"[11]; batch V, 0.8 mg/kg/i.p. per day",16 g
same,symptomatology in arteriosclerosis,"[12]; intermuscular, intravenous or slow phleboclysis, 8 to 16 mg 3-4 times per day",a very favourable modification of the symptomatology
same,improvement of the clinical framework in post-apoplectic syndromes,[12]; post-apoplectic syndromes,a greater rapidity was found in the improvement
same,anti-inflammatory activity,edema by egg white,active
same,"carotid pressure, cardiac and respiratory frequency, electrocardiac trace",rabbit [13],does not cause any change
same,Distribution of SAM in rat tissues: Hypophysis,[14]; 0.25 h,2.3 μgr/gr
same,Distribution of SAM in rat tissues: Hypothalamus,[14]; 0.25 h,0.3 μgr/gr
same,Distribution of SAM in rat tissues: Liver,[14]; 0.25 h,1.7 μgr/gr
same,Distribution of SAM in rat tissues: Plasma,[14]; 0.25 h,7.5 μgr/gr
same,Distribution of SAM in rat tissues: Rind,[14]; 0.25 h,0.25 μgr/gr
same,Distribution of SAM in rat tissues: Spleen,[14]; 0.25 h,1.3 μgr/gr
same,Distribution of SAM in rat tissues: Suprarenal glands,[14]; 0.25 h,1.9 μgr/gr
same,Distribution of SAM in rat tissues: Hypophysis,[14]; 1 h,2.5 μgr/gr
same,Distribution of SAM in rat tissues: Hypothalamus,[14]; 1 h,0.65 μgr/gr
same,Distribution of SAM in rat tissues: Liver,[14]; 1 h,3.0 μgr/gr
same,Distribution of SAM in rat tissues: Plasma,[14]; 1 h,2.1 μgr/gr
same,Distribution of SAM in rat tissues: Rind,[14]; 1 h,0.45 μgr/gr
same,Distribution of SAM in rat tissues: Spleen,[14]; 1 h,1.2 μgr/gr
same,Distribution of SAM in rat tissues: Suprarenal glands,[14]; 1 h,3.4 μgr/gr
same,Distribution of SAM in rat tissues: Hypophysis,[14]; 4 h,8.0 μgr/gr
same,Distribution of SAM in rat tissues: Hypothalamus,[14]; 4 h,1.0 μgr/gr
same,Distribution of SAM in rat tissues: Liver,[14]; 4 h,5.5 μgr/gr
same,Distribution of SAM in rat tissues: Plasma,[14]; 4 h,2.3 μgr/gr
same,Distribution of SAM in rat tissues: Rind,[14]; 4 h,0.75 μgr/gr
same,Distribution of SAM in rat tissues: Spleen,[14]; 4 h,3.5 μgr/gr
same,Distribution of SAM in rat tissues: Suprarenal glands,[14]; 4 h,4.8 μgr/gr
same,Distribution of SAM in rat tissues: Hypophysis,[14]; 8 h,4.5 μgr/gr
same,Distribution of SAM in rat tissues: Hypothalamus,[14]; 8 h,1.3 μgr/gr
same,Distribution of SAM in rat tissues: Liver,[14]; 8 h,5.6 μgr/gr
same,Distribution of SAM in rat tissues: Plasma,[14]; 8 h,2.0 μgr/gr
same,Distribution of SAM in rat tissues: Rind,[14]; 8 h,8.5 μgr/gr
same,Distribution of SAM in rat tissues: Spleen,[14]; 8 h,2.6 μgr/gr
same,Distribution of SAM in rat tissues: Suprarenal glands,[14]; 8 h,4.5 μgr/gr
same,Distribution of SAM in rat tissues: Hypophysis,[14]; 24 h,4.2 μgr/gr
same,Distribution of SAM in rat tissues: Hypothalamus,[14]; 24 h,1.3 μgr/gr
same,Distribution of SAM in rat tissues: Liver,[14]; 24 h,5.7 μgr/gr
same,Distribution of SAM in rat tissues: Plasma,[14]; 24 h,1.1 μgr/gr
same,Distribution of SAM in rat tissues: Rind,[14]; 24 h,9.4 μgr/gr
same,Distribution of SAM in rat tissues: Spleen,[14]; 24 h,2.8 μgr/gr
same,Distribution of SAM in rat tissues: Suprarenal glands,[14]; 24 h,4.4 μgr/gr
same,distribution to tissues,[14]; rat,distributed very rapidly to all the tissues
same,sleeping-waking ratios,[15],considerably improve
same,akinesia and rigidity,"[1]; 4-16 mg per day with Levodopa, vs patients treated only with Levodopa",a statistically more significant improvement
same,extent of the Parkinson tremor,[1]; SAM in association with Levodopa,Favourable modifications
same,Levodopa dependent psychic disturbances,[1]; depressive states and psychic manifestations of irritative type,distinctly improves
same,Levodopa side effects,"[1]; nausea, vomit, inappetite, hypotension, asthenia, cephalea, hypersudoration, insomnia, 4-16 mg per day",significantly blocks
C[S+](CC[C@H](N)C(=O)O)C[C@H]1O[C@@H](n2cnc3c(N)ncnc32)[C@H](O)[C@@H]1O (some centres unmarked) [chloride],decomposition after 60 days,[16],completely decomposed
